Source: patent US11452758B2, “Antimicrobial peptide derived from LL37 peptide and uses thereof” (INDUSTRY-ACADEMIC COOPERATION FOUNDATION, CHOSUN UNIVERSITY, priority 2018, dated 2022)
Read-outs that look alike come from different tables or passages of the source. Where a SMILES comes first, the peptide text is derived from it.

Tests used:
Format in all cases: cell-based
mouse erythrocytes = experiment: Hemolytic activity; details: 1 hour at 37° C.
Protocol: To compare the cytotoxicity among the peptides that are produced by the method of Example 1, erythrocyte hemolytic activity of the synthesized peptide was measured.
Specifically, erythrocytes of a mouse (Balb/c, 6 week old, female) were diluted in PBS (pH 7.0) to have concentration of 8%, and then subjected to a treatment with LL37, LL37-1, LL37-2, LL37-3 or LL37-4, to have concentration of 1.56, 3.13, 6.25, 12.5, 25.0, 50.0 or 100.0 μM/well for each followed by a reaction for 1 hour at 37° C. After that, the amount of hemoglobin contained in a supernatant collected by centrifuge at 1,000×g was determined by measuring the absorbance at a wavelength of 414 nm. As a control group to be used as a reference for cell disruption level, the supernatant collected by a treatment with 1% Triton X-100 (Sigma, USA) and a reaction for 1 hour at 37° C. was used to measure the absorbance. By setting the resulting absorbance value at 100% of the hemolytic activity, hemolysis of each peptide was calculated using the following formula. Erythrocyte disrupting ability (%)=(Absorbance A−Absorbance B)/(Absorbance C−Absorbance B)×100 (in the above formula, Absorbance A indicates the absorbance of a reaction solution treated with each peptide, in which the absorbance is measured at a wavelength of 414 nm; Absorbance B indicates the absorbance of a reaction solution treated with PBS, in which the absorbance is measured at a wavelength of 414 nm; and Absorbance C indicates the absorbance of a reaction solution treated with 1% Triton X-100, in which the absorbance is measured at a wavelength of 414 nm).

[1] = test system: normal human fibroblast cell line (Hs27); experiment: Cytotoxicity in normal cell line (MTT); details: Hs27; peptide 32 μM; 24 hours; MTT
Method in brief: (§1)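 HaCaT and Hs27 cells (1×10^4/well, DMEM with 10% FBS) were seeded 24 h, then exposed 24 h to peptides at 0.5–32 μM. Viability was measured by MTT reduction (1 h), with DMSO-dissolved formazan read at 570 nm.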

[2] = test system: normal human keratinocyte cell line (HaCaT); experiment: Cytotoxicity in normal cell line (MTT); details: HaCaT; peptide 32 μM; 24 hours; MTT
Method in brief: as §1

[3] = test system: Acinetobacter baumannii KCTC 2508; details: A. baumannii KCTC 2508
Protocol: To determine the antimicrobial activity of peptides prepared by the method of above Example 1 in the presence of different ions in living body, minimal inhibitory concentration (MIC), i.e., lowest concentration of a peptide not allowing bacterial cell division, was measured.
Specifically, among the bacterial strains that are described in the above Table 2, Acinetobacter baumannii KCTC 2508 cells were cultured to a mid-log phase in MHB (Mueller Hinton Broth) medium, and, after diluting LL37-2 or LL37-4 peptide synthesized in the above Example 1 in a solution containing different kind of ions (sodium chloride, calcium chloride, magnesium chloride, and iron chloride) at different concentration, it was added to the plate in an amount of 50 μl per plate. After that, the cultured cells were diluted to cell concentration of 2×10^5 cells/50 μl, inoculated to a microtiter plate (NUNC, USA), and then cultured again for 18 hours at 37° C. By using a microtiter plate reader (Merck Elisa reader, Germany), absorbance at wavelength of 600 nm was measured and MIC value was determined for each strain. As a control, the MIC values of LL37, LL37-2 and LL37-4 for Acinetobacter baumannii KCTC 2508, which are shown in the above Table 3, were used.

SMILES: CC[C@H](C)[C@H](NC(=O)[C@H](CCCNC(=N)N)NC(=O)[C@H](CCC(N)=O)NC(=O)[C@@H](NC(=O)[C@@H](NC(=O)[C@H](CCCNC(=N)N)NC(=O)[C@H](CCCCN)NC(=O)[C@H](Cc1ccccc1)NC(=O)[C@H](CCCCN)NC(=O)[C@@H](N)CCCCN)[C@@H](C)CC)C(C)C)C(=O)N[C@@H](CCCCN)C(=O)N[C@@H](CC(=O)O)C(=O)N[C@@H](Cc1ccccc1)C(=O)N[C@@H](CC(C)C)C(=O)N[C@@H](CCCNC(=N)N)C(=O)N[C@@H](CC(N)=O)C(N)=O [LL37-2, KKFKRIVQRIKDFLRN-NH2] (H-KKFKRIVQRIKDFLRN-NH2)
- Erythrocyte disrupting ability (mouse erythrocytes; peptide 1.56 μM): 0%
- Erythrocyte disrupting ability (mouse erythrocytes; peptide 3.13 μM): 0%
- Erythrocyte disrupting ability (mouse erythrocytes; peptide 6.25 μM): 1%
- Erythrocyte disrupting ability (mouse erythrocytes; peptide 12.5 μM): 1%
- Erythrocyte disrupting ability (mouse erythrocytes; peptide 25 μM): 1%
- Erythrocyte disrupting ability (mouse erythrocytes; peptide 50 μM): 1%
- Cell survival ability [1]: 97%
- Cell survival ability [2]: 107%
- Minimal inhibitory concentration of antimicrobial peptide ([3]; Calcium chloride 1.25 mM): 4 µM
- Minimal inhibitory concentration of antimicrobial peptide ([3]; Calcium chloride 2.5 mM): 4 µM
- Minimal inhibitory concentration of antimicrobial peptide ([3]; Calcium chloride 5 mM): 8 µM
- Minimal inhibitory concentration of antimicrobial peptide ([3]; Iron chloride 2 mM): 4 µM
- Minimal inhibitory concentration of antimicrobial peptide ([3]; Iron chloride 4 mM): 4 µM
- Minimal inhibitory concentration of antimicrobial peptide ([3]; Iron chloride 8 mM): 4 µM
- Minimal inhibitory concentration of antimicrobial peptide ([3]; Magnesium chloride 0.5 mM): 4 µM
- Minimal inhibitory concentration of antimicrobial peptide ([3]; Magnesium chloride 1 mM): 4 µM
- Minimal inhibitory concentration of antimicrobial peptide ([3]; Magnesium chloride 2 mM): 4 µM
- Minimal inhibitory concentration of antimicrobial peptide ([3]; Sodium chloride 50 mM): 8 µM
- Minimal inhibitory concentration of antimicrobial peptide ([3]; Sodium chloride 100 mM): 16 µM
- Minimal inhibitory concentration of antimicrobial peptide ([3]; Sodium chloride 150 mM): 32 µM
